Experimental data reported in PubChem BioAssay (NCI).
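In this assay, cells in 96-well plates receive the compound at five concentrations for 48 hours. Endpoints are linearly interpolated between the surrounding concentrations. TGI: total growth inhibition.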

Tests used:
Assay in all cases: inhibition of tumour cell growth, NCI panel, 48 h
[1] = tested on: BT-549 breast
[2] = tested on: HCC-2998 colon
[3] = tested on: HL-60(TB) leukemia
[4] = tested on: HOP-62 NSCLC
[5] = tested on: HT29 colon
[6] = tested on: K-562 leukemia
[7] = tested on: KM12 colon
[8] = tested on: MCF7 breast
[9] = tested on: MDA-MB-435
[10] = tested on: MDA-N
[11] = tested on: MOLT-4 leukemia
[12] = tested on: NCI-H23 lung
[13] = tested on: OVCAR-5 ovarian
[14] = tested on: SN12C renal
[15] = tested on: SNB-75 CNS
[16] = tested on: UO-31 renal
[17] = tested on: SK-MEL-5 melanoma

Row | SMILES | TGI [1] | TGI [2] | TGI [3] | TGI [4] | TGI [5] | TGI [6] | TGI [7] | TGI [8] | TGI [9] | TGI [10] | TGI [11] | TGI [12] | TGI [13] | TGI [14] | TGI [15] | TGI [16] | TGI [17]
1 | CC(=O)Oc1ccccc1-c1cc2ccccc2oc1=O | > 100 µM | > 100 µM | > 100 µM | > 100 µM | > 100 µM | > 100 µM | > 100 µM | > 100 µM | > 100 µM | > 100 µM | > 100 µM | > 100 µM | > 100 µM | > 100 µM | > 100 µM | > 100 µM | –
2 | COc1ccc2c(c1)CCc1c-2[nH]c2ccc(OC)cc12 | > 100 µM | > 100 µM | – | > 100 µM | > 100 µM | > 100 µM | > 100 µM | > 100 µM | > 100 µM | > 100 µM | > 100 µM | > 100 µM | > 100 µM | > 100 µM | > 100 µM | > 100 µM | > 100 µM
3 | C=CCN1C[C@H](C)N([C@H](c2ccc(C(=O)N(CC)CCO)cc2)c2cccc(OC)c2)C[C@H]1C | > 100 µM | – | > 100 µM | > 100 µM | > 100 µM | – | > 100 µM | > 100 µM | > 100 µM | > 100 µM | > 100 µM | > 100 µM | > 100 µM | > 100 µM | – | > 100 µM | > 100 µM
4 | N#CSc1nc[nH]c1C(N)=O | > 100 µM | > 100 µM | 6.86 µM | > 100 µM | > 100 µM | > 100 µM | > 100 µM | > 100 µM | > 100 µM | > 100 µM | – | > 100 µM | > 100 µM | 90 µM | > 100 µM | > 100 µM | > 100 µM
5 | CSC1=C(SC)SC(=C2SC3=C(SC(=C4SCCS4)S3)S2)S1 | > 100 µM | > 100 µM | > 100 µM | > 100 µM | > 100 µM | – | > 100 µM | > 100 µM | > 100 µM | > 100 µM | > 100 µM | > 100 µM | > 100 µM | > 100 µM | > 100 µM | > 100 µM | > 100 µM
6 | Cn1ccc(C(=O)NCCOCCNC(=O)c2ccn(C)c(=O)c2O)c(O)c1=O | > 100 µM | > 100 µM | – | – | > 100 µM | – | > 100 µM | – | > 100 µM | > 100 µM | – | > 100 µM | – | > 100 µM | – | > 100 µM | > 100 µM
7 | C/C(=N\Nc1cc(CN2CCCC2)c(-c2ccc(Cl)cc2)nn1)C(=O)O | > 100 µM | – | > 100 µM | > 100 µM | > 100 µM | > 100 µM | > 100 µM | > 100 µM | > 100 µM | > 100 µM | > 100 µM | > 100 µM | > 100 µM | > 100 µM | > 100 µM | > 100 µM | > 100 µM
8 | C[C@H]1[C@H](C)CC[C@]2(C)CC[C@]3(C)C(=C[C@@H](O)[C@@H]4[C@@]5(C)[C@H](O)[C@@H](O)[C@H](O)C(C)(C)[C@@H]5CC[C@]43C)[C@H]12 | > 100 µM | – | > 100 µM | > 100 µM | > 100 µM | > 100 µM | > 100 µM | > 100 µM | > 100 µM | > 100 µM | > 100 µM | > 100 µM | > 100 µM | > 100 µM | – | > 100 µM | > 100 µM
9 | CCN(CC)CCn1nc(N)c2nc3cc(Cl)ccc3nc21 | > 100 µM | > 100 µM | > 100 µM | > 100 µM | > 100 µM | > 100 µM | > 100 µM | > 100 µM | > 100 µM | > 100 µM | > 100 µM | > 100 µM | > 100 µM | > 100 µM | – | > 100 µM | 74.1 µM
10 | CC(=O)c1csc2c1C(=O)c1scc(C(C)=O)c1C2=O | 3.18 µM | – | 0.43 µM | 3.43 µM | 4.61 µM | 4.35 µM | 3.53 µM | 3.31 µM | 0.336 µM | 0.319 µM | 1.13 µM | 2.92 µM | 3.45 µM | 3.28 µM | 4.54 µM | 3.61 µM | 2.77 µM
11 | O=C(O)c1nc(-c2ccccn2)c(-c2ccccn2)nc1C(=O)O | 37.6 µM | 3.45 µM | 18.3 µM | 15.3 µM | 8.54 µM | > 100 µM | 17.9 µM | – | 30.8 µM | 29.2 µM | > 28.3 µM | 23.6 µM | 18.3 µM | 24.6 µM | 11.6 µM | 8.15 µM | 8.53 µM
12 | CN1CCOC1(C)CO (centres undefined) | > 100 µM | – | > 100 µM | > 100 µM | > 100 µM | > 100 µM | > 100 µM | > 100 µM | > 100 µM | > 100 µM | > 100 µM | > 100 µM | > 100 µM | – | > 100 µM | > 100 µM | > 100 µM
13 | CC1(C)c2ccccc2C(=O)C12CCC(=O)CC2 | > 100 µM | > 100 µM | > 100 µM | > 100 µM | > 100 µM | > 100 µM | > 100 µM | > 100 µM | – | > 100 µM | > 100 µM | > 100 µM | > 100 µM | > 100 µM | > 100 µM | > 100 µM | –
14 | C#CCn1ncc2c(SCc3ccccc3)ncnc21 | > 100 µM | > 100 µM | – | > 100 µM | > 100 µM | > 100 µM | > 100 µM | > 100 µM | > 100 µM | > 100 µM | 39 µM | > 100 µM | > 100 µM | > 100 µM | > 100 µM | > 100 µM | > 100 µM
15 | O=C1/C(=C\c2ccc([N+](=O)[O-])o2)SC2N=C(COc3ccc(Cl)cc3)NN12 (centres undefined) | 21.8 µM | – | 6.03 µM | 41.8 µM | 44.4 µM | 27 µM | 28.4 µM | 4.8 µM | 16.3 µM | 14.3 µM | > 100 µM | 35 µM | 47.5 µM | 29.6 µM | 29.7 µM | 23 µM | 27.1 µM
